Source: patent US20230391727A1, “ANALOGUES OF PENTAMIDINE AND METHODS FOR TREATING INFECTIONS” (Auransa Inc., priority 2020, published 2023)
In brackets after ≈: the same amount, converted by molar mass. Read-outs that look alike come from different tables or passages of the source.

Columns and labels:
Experiment in all cases: Anti-fungal MIC assay
Assay type in all cases: cell-based
Candida krusei ATCC6258 = conditions: Pichia kudriavzevii
Procedure: (§1) The first round of testing included Candida parapsilosis, Candida krusei, Paecilomyces variotii, Candida albicans, Aspergillus fumigatus, and Blastomyces dermatitidis. […] The second round of testing included Candida parapsilosis, Candida krusei, Candida albicans, Candida auris, Candida glabrata, Candida guilliermondii, and Cryptococcus neoformans.
(§2) Stock solutions of the investigational agent were prepared at concentrations 100-times the highest concentration to be tested (6400 μg/ml) using dimethyl sulfoxide. Aliquots of the stock solutions were dispensed into polystyrene vials and stored at −20° C.
(§3) The synthetic medium RPMI-1640 (with glutamine, without bicarbonate, and with phenol red) was used. The RPMI was buffered to a pH of 7.0+0.1 at 25° C. with 0.165M MOPS (3-[N-morpholino] propanesulfonic acid). Sterile U-shaped 96-well cell culture plates were used to perform the MIC assays. Dilutions of the DMSO stocks were prepared in RPMI to achieve 2× concentrations. After the dilutions of the working 2× investigational antifungal solutions were prepared, 0.1 ml of each concentration was transferred into a pre-specified column of the U-shaped 96-well cell culture plate using sterile pipettes.
(§4) Fungal isolates were grown on Sabouraud dextrose agar (yeasts) or potato flake agar (filamentous fungi) and cells were collected after an appropriate period of growth for each species being evaluated (e.g., 48-72 hours for yeasts and 7 days for filamentous fungi). The fungi were suspended in sterile distilled water, and the densities of the fungal suspension were read using a spectrophotometer and adjusted to an appropriate optical density specific for each fungal species. The fungal suspension of each isolate was then diluted in RPMI. A sufficient volume of the test inoculum was prepared to directly inoculate 0.1 ml into each test well of the 96-well cell culture plate. Final inoculum ranges were dependent on the fungal species to be tested (e.g., 0.4×103 to 5×10^3 cells/ml for yeasts and dimorphic fungi, and 0.4×104 to 5×10^4 cells/ml for filamentous fungi). Each well of the 96-well cell culture plate containing the investigational antifungal compounds (0.1 ml volume) was inoculated on the day of the assay with 0.1 ml of the fungal suspension. Growth control wells contained 0.1 ml of fungal suspension and 0.1 ml of the growth medium without antifungal agents. The media control well contained 0.2 ml of the growth medium.
(§5) The microdilution trays were incubated at 35° C. without agitation. […] One positive comparator/control was used for yeast (fluconazole) and one was used for filamentous fungi (voriconazole).

Candida albicans CA5 = tested on: Candida albicans CA5
Procedure: as §1, §2, §3, §4, §5

Candida parapsilosis CP1 = tested on: Candida parapsilosis CP1
Procedure: as §1, §2, §3, §4, §5

Candida albicans CA3 = tested on: Candida albicans CA3
Procedure: as §1, §2, §3, §4, §5

[1] = tested on: Candida guilliermondii Cgui3; conditions: Meyerozyma guilliermondii
Procedure: as §1, §2, §3, §4, §5

[2] = tested on: Blastomyces dermatitidis BD3
Procedure: as §1, §2, §3, §4, §5

[3] = tested on: Blastomyces dermatitidis BD1
Procedure: as §1, §2, §3, §4, §5

[4] = tested on: Candida parapsilosis ATCC22019; conditions: Lodderomyces parapsilosis
Procedure: as §1, §2, §3, §4, §5

[5] = tested on: Paecilomyces variotii MYA-3630
Procedure: as §1, §2, §3, §4, §5

[6] = tested on: Candida albicans ATCC90028
Procedure: as §1, §2, §3, §4, §5

Candida parapsilosis CP3 = conditions: Lodderomyces parapsilosis
Procedure: as §1, §2, §3, §4, §5

[7] = tested on: Aspergillus fumigatus AF3
Procedure: as §1, §2, §3, §4, §5

Candida glabrata 05-62 = tested on: Candida glabrata 05-62
Procedure: as §1, §2, §3, §4, §5

[8] = tested on: Candida guilliermondii Cgui1; conditions: Meyerozyma guilliermondii
Procedure: as §1, §2, §3, §4, §5

[9] = tested on: Cryptococcus neoformans CN3
Procedure: as §1, §2, §3, §4, §5

Candida albicans SC5314 = tested on: Candida albicans SC5314
Procedure: as §1, §2, §3, §4, §5

[10] = tested on: Candida guilliermondii Cgui2; conditions: Meyerozyma guilliermondii
Procedure: as §1, §2, §3, §4, §5

Candida parapsilosis CP2 = conditions: Lodderomyces parapsilosis
Procedure: as §1, §2, §3, §4, §5

Candida albicans 43001 = tested on: Candida albicans 43001
Procedure: as §1, §2, §3, §4, §5

Candida glabrata 05-761 = tested on: Candida glabrata 05-761
Procedure: as §1, §2, §3, §4, §5

[11] = tested on: Aspergillus fumigatus AF2
Procedure: as §1, §2, §3, §4, §5

Candida auris DI17-48 = conditions: Candidozyma auris
Procedure: as §1, §2, §3, §4, §5

Candida albicans CA6 = tested on: Candida albicans CA6
Procedure: as §1, §2, §3, §4, §5

[12] = read-out: MIC, 50% growth inhibition
[13] = read-out: MIC, 100% growth inhibition

N=C(N)c1ccc(CC[C@H]2CCC[C@@H](CCc3ccc(C(=N)N)cc3)C2)cc1 [Compound 3, 4,4′-(2,2′-((1R,3S)-cyclohexane-1,3-diyl)bis(ethane-2,1-diyl))dibenzimidamide]
MIC (Candida krusei ATCC6258; ATCC6258, C. krusei ATCC 6258, second round (Table 6), read-out: MIC, 50% growth inhibition): 0.5 µg/mL (≈ 1.33 µM) | MIC (Candida krusei ATCC6258; ATCC6258, Candida krusei ATCC6258, first round (Table 5), read-out: MIC, 50% growth inhibition): 8 µg/mL (≈ 21.2 µM) | MIC (Candida krusei ATCC6258; ATCC6258, read-out: MIC, 100% growth inhibition, C. krusei ATCC 6258, second round (Table 6)): 1 µg/mL (≈ 2.66 µM) | MIC (Candida krusei ATCC6258; ATCC6258, read-out: MIC, 100% growth inhibition, Candida krusei ATCC6258, first round (Table 5)): 8 µg/mL (≈ 21.2 µM) | MIC (Candida albicans CA5; [12]): 0.25 µg/mL (≈ 0.664 µM) | MIC (Candida albicans CA5; [13]): 0.5 µg/mL (≈ 1.33 µM) | MIC (Candida parapsilosis CP1; [12]): 1 µg/mL (≈ 2.66 µM) | MIC (Candida parapsilosis CP1; [13]): 8 µg/mL (≈ 21.2 µM) | MIC (Candida albicans CA3; [12]): 1 µg/mL (≈ 2.66 µM) | MIC (Candida albicans CA3; [13]): 1 µg/mL (≈ 2.66 µM) | MIC [1, 12]: 2 µg/mL (≈ 5.31 µM) | MIC [1, 13]: 2 µg/mL (≈ 5.31 µM) | MIC [2, 12]: 4 µg/mL (≈ 10.6 µM) | MIC [2, 13]: 8 µg/mL (≈ 21.2 µM) | MIC [3, 12]: 4 µg/mL (≈ 10.6 µM) | MIC [3, 13]: 8 µg/mL (≈ 21.2 µM) | MIC ([4]; ATCC22019, C. parapsilosis ATCC 22019, second round (Table 6), read-out: MIC, 50% growth inhibition): 0.25 µg/mL (≈ 0.664 µM) | MIC ([4]; ATCC22019, Candida parapsilosis ATCC22019, first round (Table 5), read-out: MIC, 50% growth inhibition): 0.5 µg/mL (≈ 1.33 µM) | MIC ([4]; ATCC22019, read-out: MIC, 100% growth inhibition, C. parapsilosis ATCC 22019, second round (Table 6)): 0.5 µg/mL (≈ 1.33 µM) | MIC ([4]; ATCC22019, read-out: MIC, 100% growth inhibition, Candida parapsilosis ATCC22019, first round (Table 5)): 1 µg/mL (≈ 2.66 µM) | MIC ([5]; MYA3630, read-out: MIC, 50% growth inhibition): 1 µg/mL (≈ 2.66 µM) | MIC ([5]; MYA3630, read-out: MIC, 100% growth inhibition): 1 µg/mL (≈ 2.66 µM) | MIC [6, 12]: 0.5 µg/mL (≈ 1.33 µM) | MIC [6, 13]: 1 µg/mL (≈ 2.66 µM) | MIC (Candida parapsilosis CP3; [12]): 2 µg/mL (≈ 5.31 µM) | MIC (Candida parapsilosis CP3; [13]): 8 µg/mL (≈ 21.2 µM) | MIC [7, 12]: 32 µg/mL (≈ 85 µM) | MIC [7, 13]: 64 µg/mL (≈ 170 µM) | MIC (Candida glabrata 05-62; Nakaseomyces glabratus, 0562, read-out: MIC, 50% growth inhibition): 2 µg/mL (≈ 5.31 µM) | MIC (Candida glabrata 05-62; Nakaseomyces glabratus, 0562, read-out: MIC, 100% growth inhibition): 4 µg/mL (≈ 10.6 µM) | MIC [8, 12]: 1 µg/mL (≈ 2.66 µM) | MIC [8, 13]: 1 µg/mL (≈ 2.66 µM) | MIC [9, 12]: 0.5 µg/mL (≈ 1.33 µM) | MIC [9, 13]: 0.5 µg/mL (≈ 1.33 µM) | MIC (Candida albicans SC5314; [12]): 1 µg/mL (≈ 2.66 µM) | MIC (Candida albicans SC5314; [13]): 1 µg/mL (≈ 2.66 µM) | MIC [10, 12]: 2 µg/mL (≈ 5.31 µM) | MIC [10, 13]: 2 µg/mL (≈ 5.31 µM) | MIC (Candida parapsilosis CP2; [12]): 1 µg/mL (≈ 2.66 µM) | MIC (Candida parapsilosis CP2; [13]): 4 µg/mL (≈ 10.6 µM) | MIC (Candida albicans 43001; [12]): 0.25 µg/mL (≈ 0.664 µM) | MIC (Candida albicans 43001; [13]): 0.5 µg/mL (≈ 1.33 µM) | MIC (Candida glabrata 05-761; Nakaseomyces glabratus, 05761, read-out: MIC, 50% growth inhibition): 1 µg/mL (≈ 2.66 µM) | MIC (Candida glabrata 05-761; Nakaseomyces glabratus, 05761, read-out: MIC, 100% growth inhibition): 2 µg/mL (≈ 5.31 µM) | MIC [11, 12]: 32 µg/mL (≈ 85 µM) | MIC [11, 13]: 32 µg/mL (≈ 85 µM) | MIC (Candida auris DI17-48; DI1748, read-out: MIC, 50% growth inhibition): 2 µg/mL (≈ 5.31 µM) | MIC (Candida auris DI17-48; DI1748, read-out: MIC, 100% growth inhibition): 4 µg/mL (≈ 10.6 µM) | MIC (Candida albicans CA6; [12]): 0.5 µg/mL (≈ 1.33 µM) | MIC (Candida albicans CA6; [13]): 0.5 µg/mL (≈ 1.33 µM)
